9 compounds from patent US8980914B2, “Therapeutic agent for chronic obstructive pulmonary disease and method for treatment for chronic obstructive pulmonary disease with the same” (Mariposa Health Limited, priority 2003, dated 2015) can be followed below.

The nature of experiment [1]: Peroxynitrite scavenging activity (oxidation of dihydrorhodamine 123). It counts as biochemical. The note with it: oxidation of dihydrorhodamine 123 by peroxynitrite, phosphate buffer pH 7.4; read-out: 50% Inhibitory concentration on oxidation (IC50). The procedure: This test was performed by estimating the antioxidative effect of the test substance using peroxynitrite quantitative method as a test system with dihydrorhodamine 123 so as to confirm the ability of the 7-aminoquinolinone derivatives of the present invention to scavenge peroxynitrite. This is a method described in NITRIC OXIDE: Biology and Chemistry Vol. 1, 145-157, 1997.
The test substance was weighted in an amount of approximately 10 mg, dissolved in a 10% Tween 80 solution and adjusted to 5×10^−3 mol/L. Then, the solution was diluted with 0.1 mol/L phosphate buffer (pH=7.4) to 5×10^−4 mol/L. The diluent was further diluted stepwise with a phosphate buffer containing 1% Tween 80 to obtain substance solution. The preparation was conducted before use. The final concentration of the test substance was adjusted to 3×10^−6, 1×10^−6, 3×10^−7, 1×10^−7, and 3×10^−8 mol/L, respectively.
To 20 μL of peroxynitrite solution (manufactured by DOJINDO LABORATORIES), 1980 μL of 0.1 mol/L sodium hydroxide was added and the mixture was diluted 100 times. The absorbance of the maximum absorption wavelength near 300 nm was measured using a UV-visible spectrophotometer and the concentration was calculated according to the following equation. Concentration(mmol/L)=(absorbance/1670)×100×1000
Based on the concentration calculated in the above section, dilution with a 0.1 mol/L sodium hydroxide solution was conducted and adjusted to 10 mmol/L. 990 μL of a 0.1 mol/L sodium hydroxide solution was taken into a 1.5 mL-Eppen tube. To the Eppen tube, 10 μL of a solution adjusted to 10 mmol/L was added to prepare a 100 μmol/L solution.
Dihydrorhodamine 123 was dissolved into 1.155 mL of dimethylsulfoxide, and adjusted to the concentration of 25 mmol/L. This solution was dispensed into 20 μL aliquots and then the aliquots were stored in a biomedical freezer (about −20° C.) and used as a stock solution.
To 490 μL of 0.02% Tween 80 containing 0.1 mol/L phosphate buffer, 10 μL of 25 mmol/L of a thawed dihydrorhodamine 123 stock solution was added to make 500 μmol/L. The prepared solution was diluted with 0.1 mol/L phosphate buffer (pH=7.4) 1000 times to prepare 500 nmol/L of a dihydrorhodamine 123 solution.
(1) To a 3.5 mL brown vial containing a stirring bar, 1470 μL of a 500 nmol/L dihydrorhodamine 123 solution and then 15 μL of the test substance solution was added. For the blank and control groups, 15 μL of 0.1 mol/L phosphate buffer containing 1% Tween 80, as a solvent for the test substance solution, was added. After the addition, the mixture was stirred with a stirrer for 30 minutes.
15 μL of a 100 μmol/L peroxynitrite solution was added while stirring. For the blank group, 15 μL of a 0.1 mol/L sodium hydroxide solution was added. After stirring for 15 minutes, fluorescence intensity was measured.
Fluorescence intensity of the reaction solution was measured using a spectrophotofluorometer under the following measuring conditions: excitation wavelength, 500 nm; emission wavelength, 536 nm; measuring times, one; response, 1 sec; photomultiplier tube voltage, Low; band width at excitation side, 10 nm; bandwidth at emission side, 10 nm.
The oxidation rate of dihydrorhodamine 123 when adding the test substance was calculated, taking the oxidation rate of dihydrorhodamine 123 for control as 100, according to the following equation: Oxidation rate (%) of dihydrorhodamine 123=(measured value for each group−measured value for blank)/(measured for control−measured value for blank)×100 Calculation of Oxidation Inhibition Concentration (IC50)
50% oxidation concentration, that is 50% oxidation inhibition concentration (IC50) was calculated by giving a straight line from two points surrounding 50% oxidation rate.

In experiment [2] the test system is airway hyper-responsiveness induced by peroxynitrite. In words: Airway hyper-responsiveness model induced by exposure of peroxynitrite in guinea pigs (lung resistance after histamine). The note with it: 30 mg/kg orally one hour before peroxynitrite, histamine 32 μg/kg i.v. on 5-day, control group 759, non-stimulation group 382. It counts as in vivo. How it is done:
This test was performed so as to investigate the pharmacological effect of the 7-aminoquinolinone derivative of the present invention on an airway hyper-responsiveness model induced by exposure of peroxynitrite in guinea pigs. The test procedure will now be described.
Guinea pigs were fasted for 18 hours or more. The animals were administrated the test substance (30 mg/kg) orally one hour before exposure of peroxynitrite and the neck was dissected under ether anesthesia, and then the trachea was exposed. 0.1 mL of 1 mmol/L peroxynitrite was administered intratracheally into pulmonary side by pushing with air and, after the administration, the incision was sutured and disinfected.
The measurement of airway hyper-responsiveness was performed on 5-day, taking the day of model preparation 0-day. Guinea pigs were fasted for 18 hours or more. The measurement of lung resistance; (RLung) was performed according to the method of R. E. Giles et al. (R. E. Giles, M. P. Finkel and J. Mazurowski: Use of an Analog On-Line Computer for the Evaluation of Pulmonary Resistance and Dynamic Compliance in the Anesthetized Dog. Arch. Int. Pharmacodyn. 194, 213-222 (1971)). That is, the animals were anesthetized with Nembutal (Trade name: 40 mg/kg, i.v., sodium pentobarbital) and subjected to cannulation into esophagus, trachea and jugular veins (for administration of histamine). The esophagus and trachea cannulas were connected to an artificial respirator (ventilation volume: 6 mL/kg, ventilation frequency: 60 times/min, SN-480-7) and the Rlung was measured after intravenous administration (dose of 0.1 mL/kg) of physiological saline solution and histamine (32 μg/kg) using a total plethysmograph system via flow sensor, connected to Validyne DF45F (for flow rate) and DP45P (for pressure). RLung before administration was determined by averaging values of any 3 out of 20 breaths, RLung after administration of physiological saline solution was determined by averaging values of any 3 out of 5 breaths, and RLung after administration of histamine was determined by averaging values of the following 3 breaths; 1) showing the maximum lung resistance, 2) taken just before and 3) taken just after the one with the maximum lung resistance, out less than 20 breaths. (The extreme values in RLung that occurred when animal moved during the measurement were excluded from the calculations.)
The percentage of increase in lung resistance was calculated by the following equation. Increase in lung resistance (%)=([RLung after administration of histamine]−[RLung before administration])/[RLung before administration]×100

The subject of experiment [3] is airway hyper-responsiveness induced by ozone. The experiment can be described thus: Airway hyper-responsiveness model induced by inhalation of ozone in guinea pigs (lung resistance after methacholine). It counts as in vivo. As to conditions: test substance 30 mg/kg one hour before ozone inhalation, RLung after methacholine inhalation 5 hours after end of ozone exposure. The procedure: This test was performed so as to evaluate the pharmacological effect of the 7-aminoquinolinone derivatives of the present invention in an airway hyper-responsiveness model induced by inhalation of ozone in guinea pigs. The test procedure will now be described.
Guinea pigs were fasted for 18 hours or more. The animals were administered the test substance (30 mg/kg) and theophylline (100 mg/kg) one hour before ozone inhalation. For the non-stimulation group and the vehicle control group, vehicle (5 mL/kg) was administered similarly.
The animals were put into an acryl-made chamber (29×19×25 cm), subjected to induction of ozone generated by an ozonizer (EUV3-XU; EBARA JITSUGYO CO, LTD.) and exposed for 2 hours. The ozone concentration in the chamber was approximately 3 ppm. It was confirmed every 30 minutes that this concentration was maintained during exposure by an ozone monitor (EG-5000; EBARA JITSUGYO CO, LTD.) (measured value: 2.53 to 3.40 ppm). For the non-stimulation group, the animals were exposed to a mixed gas (oxygen: 95%, carbonic acid gas: 5%) similarly. The ozone concentration at that time was also confirmed similarly (acceptable concentration: 0.01 ppm or less, measured value: 0.00 to 0.01 ppm).
The measurement of airway hyper-responsiveness was performed 5 hours after the end of ozone exposure. The measurement of lung resistance (RLung) was performed according to the method of R. E. Giles et al. in the same manner as in Example 2. That is, the animals were anesthetized with Nembutal (Trade name: 50 mg/kg, i.p., sodium pentobarbital) and subjected to cannulation into esophagus and trachea. The esophagus and trachea cannulas were connected to a respirator (ventilation volume: 6 mL/kg, ventilation frequency: 60 times/min, SN-480-7) and the RLung after inhalation of methacholine (100 μg/mL, for 1.5 minutes) was measured by the respiratory function analyzer (PULMOS-II; M.I.P.S) through a flow sensor (connected to Validyle DF45F (for flow rate) and DP45P (for pressure)). The inhalation of methacholine was performed with an ultrasonic nebuliser (NE-U17; Omron Matsuzaka) connected to the respirator under artificial respiration.
Used RLung represents 10 breaths having a stable value in a range from 1 to 30 breaths after initiation of each measurement for both before inhalation and during methacholine inhalation. The average of the RLung was calculated. The extreme values in RLung that occurred when animal moved during the measurement were excluded from the calculations.
The percentage of increase of RLung was calculated by the following equation. Increase in lung resistance (%)=([RLung after inhalation of methacholine]−[RLung before administration])/[RLung before administration]×100

pIC50: −log10 of the molar value.

Turning to `CCCCCCOc1c(O)c2ccc(NC=O)cc2n(CCCC)c1=O` [Compound 459], the pIC50 in experiment [1] is 6.03. Moreover, the “Increase in lung resistance (%)” value was determined as 427% in experiment [2] and 26% in experiment [3].
The matching figures for `COc1c(O)c2ccc(NC(=O)c3ccccc3)cc2n(C)c1=O` [Compound 514]: 6.04, 434% and 31%.
Regarding `CCCCCCCCOc1c(O)c2ccc(NC(=O)c3ccccc3)cc2n(C)c1=O` [Compound 519], the pIC50 in experiment [1] is 6.08. For the same compound, the “Increase in lung resistance (%)” value in experiment [2] is 440%; in experiment [3], 26%.
As for `COc1cc(C=CC(=O)Nc2ccc3c(O)c(OC)c(=O)n(C)c3c2)cc(OC)c1O` [Compound 546], in experiment [1], the pIC50 was 6.10. Besides, the results for the “Increase in lung resistance (%)” value in experiment [2] and in experiment [3] were 422% and 27%, respectively.
For `CCCCCCOc1c(O)c2ccc(NC(=O)C=Cc3cc(OC)c(O)c(OC)c3)cc2n(C)c1=O` [Compound 549] the same measures were 6.10, 423% and 28%.
Turning to `CCCCCCCCOc1c(O)c2ccc(NC(=O)C=Cc3cc(OC)c(O)c(OC)c3)cc2n(C)c1=O` [Compound 551], in experiment [1], the pIC50 is 6.15. Also, the results for the “Increase in lung resistance (%)” value in experiment [2] and in experiment [3] were 416% and 22%, respectively.
Regarding `COc1cc(C=CC(=O)Nc2ccc3c(O)c(OCC=C(C)CCC=C(C)C)c(=O)n(C)c3c2)cc(OC)c1O` [Compound 553], the pIC50 in experiment [1] is 6.01. In addition, the figures for the “Increase in lung resistance (%)” value in experiment [2] and in experiment [3] were 417% and 28%, respectively.
Regarding `CCCCCCOc1c(O)c(=O)n(C)c2cc(NC(=O)C=Cc3cc(OC)c(O)c(OC)c3)ccc12` [Compound 556], the pIC50 in experiment [1] is 6.05. Further, the “Increase in lung resistance (%)” value in experiment [2] amounted to 426%; in experiment [3] it was 25%.
The matching figures for `CCCCCCOc1c(O)c2ccc(NC(=O)C=Cc3ccc(O)c(OC)c3)cc2n(C)c1=O` [Compound 581]: 6.12, 430% and 30%.
